Measured values taken from US20120003270A1, “6-SUBSTITUTED ISOFLAVONOID COMPOUNDS AND USES THEREOF” (priority 2008, published 2012).
Marks after values point to notes of the source that are not given here.

Tests used:
PMA-induced ear swelling = assay: Murine ear inflammation assay, PMA; format: in vivo, mouse; conditions: 25 mg/kg i/p; for Change in ear thickness (mean ± SD, ×0.01 mm): 5 hr after PMA
Description: Groups of 5-6 female BALB/c mice (ARC, WA, Australia), weighing 15-21 g were injected intraperitoneally (i/p) with selected compounds of the formula (I) at 25 mg/kg delivered in polyethylene glycol (PEG) 400: phosphate buffered saline (PBS) 1:1 or ethanol: propanediol:PBS 4:9:7 either 30 min prior to or immediately before the inflammogen was applied to the ears. Mice were anaesthetised using isoflurane and baseline thickness of both ears was measured using a spring micrometer. Each mouse received a total of […] of either AA in ethanol (50 mg/ml or 200 mg/ml) or PMA in either ethanol or acetone (0.2 mg/ml) applied to the inner and outer surfaces of each pinna (i.e. 0.5 mg or 2 mg AA or 2 μg PMA per ear). Mice were anaesthetised again to re-measure the ears at 1 hr post-AA application and 5 hr after PMA. The difference in ear swelling pre- and post-application of inflammogen for each ear was calculated, and the average for the two ears of each mouse taken. The difference in mean swelling of each test group compared to the group given vehicle alone was calculated using a general ANOVA using Dunnett's Multiple Comparison test when multiple compounds were tested in the one experiment or a two-tailed unpaired t-test when only one compound was tested (Prism 4, Graphpad Software).

prostacyclin (PGI2) = assay: 6-keto PGF1α (prostacyclin) synthesis in IL-1β stimulated HUVECs (RIA); format: cell-based, human; conditions: overnight, mean+SEM, n=3
Description: Cultured human umbilical vein endothelial cells (HUVECs—Vascular Biology Laboratory, Hanson Institute, Adelaide SA) were removed harvested in 0.25% trypsin-EDTA. After quenching and further washing in RPMI-10% FCS, the cells were resuspended in fresh medium at 1-1.5×10^5 cells per ml and plated out in gelatin coated wells at 2 ml per well. After incubation overnight in 5% CO2 at 37° C., the medium was refreshed and the cells returned to the incubator and allowed to equilibrate for approximately 2 h. Test compounds at concentrations of 0, 1, 10 or 100 μM were added to the cells, and 30 minutes later, stimulated by interleukin-1β (IL-1β-10 μl of a 2 ng/ml solution). After overnight incubation at 37° C., supernatants were collected by centrifugation at 2000 rpm for 5 min and stored at −20° C. Production of prostacyclin after overnight incubation was measured by radioimmunoassay (RIA). Because PGI2 is labile in aqueous medium, the stable hydrolysis product 6-keto PGF1α, was measured as a surrogate marker. Results are expressed as mean+SEM, n=3. Differences between means were analysed by one-way ANOVA followed by Tukey's test for multiple comparisons. Differences between means were regarded as significant when p<0.05.

iNOS = assay: NO synthesis in LPS-stimulated RAW 264.7 (Griess); format: cell-based, mouse; conditions: LPS 50 ng/ml, 16 hrs
Description: The mouse macrophage cell line RAW 264.7 was cultured in DMEM supplemented with foetal calf serum (FCS), 2 mM glutamine and 50 U/ml penicillin/streptomycin. Cells were treated with either the compounds of the formula (I) (in 0.025% DMSO) or vehicle alone, and added one hour before 50 ng/ml LPS, which induces iNOS and the production of NO. After incubation for 16 hrs, culture media was collected. Nitrite concentration is a quantitative indicator of NO production and was determined by the Griess Reaction. Briefly, 100 μL of Griess reagent was added to 50 μL of each supernatant in duplicate. The absorbance at 550 nm was measured (Molecular Devices, SpectraMax 250 microplate spectrophotometer, CA, USA), and nitrite concentrations were determined against a standard curve of sodium nitrite.

rabbit kidney (RK-13) = assay: Toxicity in normal cells (MTT), RK-13; format: cell-based; conditions: Oryctolagus cuniculus, RK-13, 120 h, 5 days, top concentration 150 μM, read-out: Normal cell viability IC50
Description: Human neonatal fibroblast foreskin (NFF—a gift from Dr. Peter Parsons, Queensland Institute of Medical Research) or rabbit kidney (RK-13—a gift from Prof. Miller Whalley, Macquarie University) cells were seeded into 96 well plates and cultured in RPMI supplemented with 10% FCS (CSL, Australia), penicillin (100 U/ml), streptomycin ([…]), L-glutamine (2 mM) and sodium bicarbonate (1.2 g/L) at 37° C. and 5% CO2 for 24 hours until cells had attached and entered log phase of growth. Test compounds were added in serial two-fold dilutions from 150 μM in triplicate and incubated for a further 5 days. MTT was then added to each well, incubated for 3 hours at 37° C., after which the medium was tipped off. Following the addition of DMSO, the absorbance for each well was read on a plate reader. The assays were repeated at least twice.

[1] = tested on: serum-treated zymozan air pouch inflammation; assay: Rat air pouch assay; format: in vivo; conditions: for Cells in lavage fluid (×10^−7): intrapouch, mean ± SD; for Cells in lavage fluid (×10^−7) / PMN in tissue sections (per 100 squares): 4 h after STZ; for PMN in tissue sections (per 100 squares): pouch wall
Description: Air pouches were raised on the dorsum of female Dark Agouti rats, approximately seven weeks of age. To promote the formation of a cellular membrane lining the inside of each pouch, the pouches were maintained by re-inflating on days 2 and 5 after the initial injection of air. On re-inflation, the pouch was first deflated to ensure the needle was positioned correctly, before being re-inflated with 2 mL of sterile air. Using this protocol, the pouches remained inflated until use on day 7, when they were injected with 0.5 ml of either test compound or vehicle control. After 15 min, air pouches were injected with serum-treated zymozan (STZ—500 μg). Lavage of the air pouch (4×2 ml lavages) was performed at 4 h and leucocytes counted, after which the rats were killed, the air pouch excised and processed in formalin for histology. The sections were blinded to the person counting. Using a graticule with 100 squares and the 40× objective, the number of polymorphs (PMN) was counted in the pouch lining at 10 different and non-adjacent sites. Group sizes were 5-6 rats. Data were analysed for statistical significance within each experiment and using an unpaired t test. Compounds (1) and (3) were examined in this assay.

[2] = treated rats compared with controls

SMILES	% Change compared with vehicle (PMA-induced ear swelling) [%]	Change in ear thickness (mean ± SD, ×0.01 mm) (PMA-induced ear swelling) [×0.01 mm]	PGF1α (prostacyclin (PGI2); 1 μM) [pg/mL]	PGF1α (prostacyclin (PGI2); 10 μM) [pg/mL]	PGF1α (prostacyclin (PGI2); 100 μM) [pg/mL]	NO (μM) (iNOS; 1 μM)	NO (iNOS; 10 μM) [µM]	IC50 (rabbit kidney (RK-13)) [µM]	Cells in lavage fluid (×10^−7) [1]	PMN in tissue sections (per 100 squares) [1] [per 100 squares]	Number of extravasated PMN in the pouch wall, fold less than controls [1, 2]	Number of exudate cells in the pouch cavity, fold less than controls [1, 2]	PGF1α (pg/ml) (prostacyclin (PGI2); 10 μM)	NO (iNOS; 1 μM) [µM]
CN(C)Cc1cc2c(cc1O)OCC(c1ccc(O)cc1)=C2 [Compound (1)]	−12.3	28.9 ± 3.071	0.667 ± 0.088	0.584 ± 0.059	0.277 ± 0.07	17.27 ± 0^ μM	5.29 ± 0.15	> 150	0.43 ± 0.21^b ×10^−7	13.03 ± 7.10	more than 3 fold	more than 3 fold	–	–
O=C(O)C1CCCN1Cc1cc2c(cc1O)OCC(c1ccc(O)cc1)=C2 (stereo not shown) [Compound (3)]	0	37.9 ± 2.6	0.353 ± 0.045	–	0.308 ± 0.065	–	21.79 ± 0.82	> 150	1.73 ± 0.84 ×10^−7	35.85 ± 12.89	–	–	0.335 ± 0.039^ pg/ml	31.33 ± 0.16
